13 molecules from US10780090B2, “Heteroaryl compounds useful as inhibitors of SUMO activating enzyme” (Millennium Pharmaceuticals, Inc., priority 2014, dated 2020) can be followed below.

Some results are limits rather than exact numbers.

This assay concerns the target recombinant human SAE enzyme (Homo sapiens (Human), UniProt Q9UBT2). Description: SAE HTRF enzyme assay. The settings on record: for Percent Inhibition: SAE inhibition at compound concentration 0.111 μM; for IC50: SAE inhibition, class symbols, legend in nM. The class given is biochemical. Put shortly: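 Sumoylation of Ubc9-GST by SAE was followed at low ATP (0.5 μM), pH 7.5, 24° C. for 105 min. Product was detected by HTRF with antibody pairs against Flag and GST tags.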
A general note: In TR-FRET formats the signal depends on donor and acceptor labels being close together.

Chain of recombinant human SAE enzyme (Q9UBT2 whole entry): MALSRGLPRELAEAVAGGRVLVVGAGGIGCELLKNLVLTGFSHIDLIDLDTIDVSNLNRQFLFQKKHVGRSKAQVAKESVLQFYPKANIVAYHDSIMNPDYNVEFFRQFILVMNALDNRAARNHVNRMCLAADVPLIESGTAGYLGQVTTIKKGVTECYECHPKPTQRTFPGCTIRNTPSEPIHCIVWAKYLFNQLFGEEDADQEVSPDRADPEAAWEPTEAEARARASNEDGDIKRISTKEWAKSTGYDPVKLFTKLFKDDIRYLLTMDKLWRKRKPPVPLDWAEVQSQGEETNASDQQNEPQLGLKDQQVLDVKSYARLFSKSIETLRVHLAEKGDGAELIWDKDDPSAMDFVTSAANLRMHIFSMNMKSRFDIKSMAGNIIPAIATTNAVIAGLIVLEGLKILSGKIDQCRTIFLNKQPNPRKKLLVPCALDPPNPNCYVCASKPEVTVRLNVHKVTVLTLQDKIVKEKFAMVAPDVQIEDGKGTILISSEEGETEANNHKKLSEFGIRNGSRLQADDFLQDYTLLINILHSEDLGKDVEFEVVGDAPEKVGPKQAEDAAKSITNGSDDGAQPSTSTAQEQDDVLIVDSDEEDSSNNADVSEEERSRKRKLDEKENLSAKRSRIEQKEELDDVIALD
Chain of recombinant human SAE enzyme (Q9UBE0 whole entry partner): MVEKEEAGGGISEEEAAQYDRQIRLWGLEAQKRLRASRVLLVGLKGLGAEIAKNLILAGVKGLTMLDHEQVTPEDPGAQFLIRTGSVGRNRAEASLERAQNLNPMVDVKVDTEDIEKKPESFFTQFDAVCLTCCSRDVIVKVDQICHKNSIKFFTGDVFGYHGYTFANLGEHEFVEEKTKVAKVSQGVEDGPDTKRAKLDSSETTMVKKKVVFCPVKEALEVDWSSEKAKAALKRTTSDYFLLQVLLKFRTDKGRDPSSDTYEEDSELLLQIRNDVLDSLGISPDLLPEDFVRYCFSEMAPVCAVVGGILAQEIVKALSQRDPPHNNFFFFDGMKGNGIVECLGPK

One may read the IC50 as the concentration at which inhibition is half-maximal. Take `NS(=O)(=O)OC[C@H]1C[C@@H](Nc2ncncc2C(=O)c2cc([C@@H]3OCC(F)(F)c4ccccc43)cs2)C[C@@H]1O` (single isomer, unassigned) [I-293b, [(1R,2S,4R)-4-{[5-({4-[(1R)-4,4-difluoro-3,4-dihydro-1H-isochromen-1-yl]-2-thienyl}carbonyl)pyrimidin-4-yl]amino}-2-hydroxycyclopentyl]methyl sulfamate or [(1R,2S,4R)-4-{[5-({4-[(1S)-4,4-difluoro-3,4-dihydro-1H-isochromen-1-yl]-2-thienyl}carbonyl)pyrimidin-4-yl]amino}-2-hydroxycyclopentyl]methyl sulfamate]: the “Percent Inhibition” value amounted to 98% and the IC50 was less than 10 nM.

Regarding `NS(=O)(=O)OC[C@H]1C[C@@H](Nc2ncncc2C(=O)c2cc([C@@H]3OCCc4ccc(F)cc43)c(Cl)s2)C[C@@H]1O` (single isomer, unassigned) [I-294, [(1R,2S,4R)-4-[[5-[5-chloro-4-[(1R)-7-fluoroisochroman-1-yl]thiophene-2-carbonyl]pyrimidin-4-yl]amino]-2-hydroxy-cyclopentyl]methyl sulfamate or [(1R,2S,4R)-4-[[5-[5-chloro-4-[(1S)-7-fluoroisochroman-1-yl]thiophene-2-carbonyl]pyrimidin-4-yl]amino]-2-hydroxy-cyclopentyl]methyl sulfamate], the “Percent Inhibition” value amounted to 99% and the IC50 is less than 10 nM.

In the case of `NS(=O)(=O)OC[C@H]1C[C@@H](Nc2ncncc2C(=O)c2cc([C@@H]3OCCc4ccc(F)cc43)c(Cl)s2)C[C@@H]1O` (single isomer, unassigned) [I-294a, [(1R,2S,4R)-4-{[5-({5-chloro-4-[(1R)-7-fluoro-3,4-dihydro-1H-isochromen-1-yl]-2-thienyl}carbonyl)pyrimidin-4-yl]amino}-2-hydroxycyclopentyl]methyl sulfamate or [(1R,2S,4R)-4-{[5-({5-chloro-4-[(1S)-7-fluoro-3,4-dihydro-1H-isochromen-1-yl]-2-thienyl}carbonyl)pyrimidin-4-yl]amino}-2-hydroxycyclopentyl]methyl sulfamate], the “Percent Inhibition” value is reported as 84% and the IC50 lay in the range of 10 to 100 nM.

`NS(=O)(=O)OC[C@H]1C[C@@H](Nc2ncncc2C(=O)c2cc([C@@H]3OCCc4ccc(F)cc43)c(Cl)s2)C[C@@H]1O` (single isomer, unassigned) [I-294b, [(1R,2S,4R)-4-{[5-({5-chloro-4-[(1R)-7-fluoro-3,4-dihydro-1H-isochromen-1-yl]-2-thienyl}carbonyl)pyrimidin-4-yl]amino}-2-hydroxycyclopentyl]methyl sulfamate or [(1R,2S,4R)-4-{[5-({5-chloro-4-[(1S)-7-fluoro-3,4-dihydro-1H-isochromen-1-yl]-2-thienyl}carbonyl)pyrimidin-4-yl]amino}-2-hydroxycyclopentyl]methyl sulfamate]: the “Percent Inhibition” value was 98% and the IC50 was less than 10 nM.

Consider `Cc1sc(C(=O)c2cncnc2N[C@@H]2C[C@H](COS(N)(=O)=O)[C@@H](O)C2)cc1C1OCCc2ccc(C(F)(F)F)nc21` (single isomer, unassigned) [I-297a, [(1R,2S,4R)-2-hydroxy-4-{[5-({5-methyl-4-[(8S)-2-(trifluoromethyl)-5,8-dihydro-6H-pyrano[3,4-b]pyridin-8-yl]-2-thienyl}carbonyl)pyrimidin-4-yl]amino}cyclopentyl]methyl sulfamate or [(1R,2S,4R)-2-hydroxy-4-{[5-({5-methyl-4-[(8R)-2-(trifluoromethyl)-5,8-dihydro-6H-pyrano[3,4-b]pyridin-8-yl]-2-thienyl}carbonyl)pyrimidin-4-yl]amino}cyclopentyl]methyl sulfamate], for which the “Percent Inhibition” value turned out to be 31% and the IC50 is 100 to 1000 nM.

In the case of `Cc1sc(C(=O)c2cncnc2N[C@@H]2C[C@H](COS(N)(=O)=O)[C@@H](O)C2)cc1C1OCCc2ccc(C(F)(F)F)nc21` (single isomer, unassigned) [I-297b, [(1R,2S,4R)-2-hydroxy-4-{[5-({5-methyl-4-[(8S)-2-(trifluoromethyl)-5,8-dihydro-6H-pyrano[3,4-b]pyridin-8-yl]-2-thienyl}carbonyl)pyrimidin-4-yl]amino}cyclopentyl]methyl sulfamate or [(1R,2S,4R)-2-hydroxy-4-{[5-({5-methyl-4-[(8R)-2-(trifluoromethyl)-5,8-dihydro-6H-pyrano[3,4-b]pyridin-8-yl]-2-thienyl}carbonyl)pyrimidin-4-yl]amino}cyclopentyl]methyl sulfamate], the “Percent Inhibition” value was 99% and the IC50 is less than 10 nM.

For `Cc1sc(C(=O)c2cncnc2N[C@@H]2C[C@H](COS(N)(=O)=O)[C@@H](O)C2)cc1C1OCCc2oc(Cl)cc21` (single isomer, unassigned) [I-298a, [(1R,2S,4R)-4-{[5-({4-[(4R)-2-chloro-6,7-dihydro-4H-furo[3,2-c]pyran-4-yl]-5-methyl-2-thienyl}carbonyl)pyrimidin-4-yl]amino}-2-hydroxycyclopentyl]methyl sulfamate or [(1R,2S,4R)-4-{[5-({4-[(4S)-2-chloro-6,7-dihydro-4H-furo[3,2-c]pyran-4-yl]-5-methyl-2-thienyl}carbonyl)pyrimidin-4-yl]amino}-2-hydroxycyclopentyl]methyl sulfamate], the “Percent Inhibition” value is on record as 34% and the IC50 lay in the range of 100 to 1000 nM.

Regarding `Cc1sc(C(=O)c2cncnc2N[C@@H]2C[C@H](COS(N)(=O)=O)[C@@H](O)C2)cc1C1OCCc2oc(Cl)cc21` (single isomer, unassigned) [I-298b, [(1R,2S,4R)-4-{[5-({4-[(4R)-2-chloro-6,7-dihydro-4H-furo[3,2-c]pyran-4-yl]-5-methyl-2-thienyl}carbonyl)pyrimidin-4-yl]amino}-2-hydroxycyclopentyl]methyl sulfamate or [(1R,2S,4R)-4-{[5-({4-[(4S)-2-chloro-6,7-dihydro-4H-furo[3,2-c]pyran-4-yl]-5-methyl-2-thienyl}carbonyl)pyrimidin-4-yl]amino}-2-hydroxycyclopentyl]methyl sulfamate], the “Percent Inhibition” value turned out to be 98% and the IC50 was less than 10 nM.

`NS(=O)(=O)OC[C@H]1C[C@@H](Nc2ncncc2C(=O)c2cc([C@@H]3NCCc4ccc(Cl)cc43)c(Cl)o2)C[C@@H]1O` (single isomer, unassigned) [I-299a, {(1R,2S,4R)-4-[(5-{5-chloro-4-[(1R)-7-chloro-1,2,3,4-tetrahydroisoquinolin-1-yl]-2-furoyl}pyrimidin-4-yl)amino]-2-hydroxycyclopentyl}methyl sulfamate or {(1R,2S,4R)-4-[(5-{5-chloro-4-[(1S)-7-chloro-1,2,3,4-tetrahydroisoquinolin-1-yl]-2-furoyl}pyrimidin-4-yl)amino]-2-hydroxycyclopentyl}methyl sulfamate]: the “Percent Inhibition” value is reported as 101% and the IC50 is less than 10 nM.

`NS(=O)(=O)OC[C@H]1C[C@@H](Nc2ncncc2C(=O)c2cc([C@@H]3NCCc4ccc(Cl)cc43)c(Cl)o2)C[C@@H]1O` (single isomer, unassigned) [I-299b, {(1R,2S,4R)-4-[(5-{5-chloro-4-[(1R)-7-chloro-1,2,3,4-tetrahydroisoquinolin-1-yl]-2-furoyl}pyrimidin-4-yl)amino]-2-hydroxycyclopentyl}methyl sulfamate or {(1R,2S,4R)-4-[(5-{5-chloro-4-[(1S)-7-chloro-1,2,3,4-tetrahydroisoquinolin-1-yl]-2-furoyl}pyrimidin-4-yl)amino]-2-hydroxycyclopentyl}methyl sulfamate]: the “Percent Inhibition” value is listed as 93% and the IC50 was less than 10 nM.

With `Cc1sc(C(=O)c2cncnc2N[C@@H]2C[C@H](COS(N)(=O)=O)[C@@H](O)C2)nc1C1OCCc2ccc(Cl)cc21` (single isomer, unassigned) [I-300a, [(1R,2S,4R)-4-{[5-({4-[(1R)-7-chloro-3,4-dihydro-1H-isochromen-1-yl]-5-methyl-1,3-thiazol-2-yl}carbonyl)pyrimidin-4-yl]amino}-2-hydroxycyclopentyl]methyl sulfamate or [(1R,2S,4R)-4-{[5-({4-[(1S)-7-chloro-3,4-dihydro-1H-isochromen-1-yl]-5-methyl-1,3-thiazol-2-yl}carbonyl)pyrimidin-4-yl]amino}-2-hydroxycyclopentyl]methyl sulfamate], the “Percent Inhibition” value is given as 26% and the IC50 was 100 to 1000 nM.

Consider `Cc1sc(C(=O)c2cncnc2N[C@@H]2C[C@H](COS(N)(=O)=O)[C@@H](O)C2)nc1C1OCCc2ccc(Cl)cc21` (single isomer, unassigned) [I-300b, [(1R,2S,4R)-4-{[5-({4-[(1R)-7-chloro-3,4-dihydro-1H-isochromen-1-yl]-5-methyl-1,3-thiazol-2-yl}carbonyl)pyrimidin-4-yl]amino}-2-hydroxycyclopentyl]methyl sulfamate or [(1R,2S,4R)-4-{[5-({4-[(1S)-7-chloro-3,4-dihydro-1H-isochromen-1-yl]-5-methyl-1,3-thiazol-2-yl}carbonyl)pyrimidin-4-yl]amino}-2-hydroxycyclopentyl]methyl sulfamate], for which the “Percent Inhibition” value came out at 101% and the IC50 is less than 10 nM.

With `NS(=O)(=O)OC[C@H]1C[C@@H](Nc2ncncc2C(=O)c2cc([C@@H]3OCCc4c(Cl)cccc43)cs2)C[C@@H]1O` (single isomer, unassigned) [I-301a, [(1R,2S,4R)-4-{[5-({4-[(1R)-5-chloro-3,4-dihydro-1H-isochromen-1-yl]-2-thienyl}carbonyl)pyrimidin-4-yl]amino}-2-hydroxycyclopentyl]methyl sulfamate or [(1R,2S,4R)-4-{[5-({4-[(1S)-5-chloro-3,4-dihydro-1H-isochromen-1-yl]-2-thienyl}carbonyl)pyrimidin-4-yl]amino}-2-hydroxycyclopentyl]methyl sulfamate], the “Percent Inhibition” value is on record as 40% and the IC50 is 100 to 1000 nM.
